Drawing on PMC6523505, “Inhibition of Oncogenic Kinases: An In Vitro Validated Computational Approach Identified Potential Multi-Target Anticancer Compounds” (Biomolecules, 2019), this text covers IC50 for 12 compounds.

Assay [1] concerns HeLa (human epithelial cervical cancer) cell line. The experiment in a line: MTT cytotoxicity assay. To be noted: after 48 h of treatment, mean ± S.D. The assay is classed as cell-based. An excerpt:
(§1) HeLa (human epithelial cervical cancer, ATCC CCL-2), HepG2 (human epithelial liver cancer, ATCC HB-8065) and Vero (monkey epithelial kidney […], ATCC CCL-81) cell lines were used to examine the selected virtual hit compounds’ anti-cancer activity. All cell lines were generously provided by the late Prof. Dr. M.H. Qazi, University of Lahore, Lahore, Pakistan. The test compounds were purchased via MolPort and cisplatin from Pharmedic (Pvt) Ltd., Lahore, Pakistan. Cell culture media, fetal calf serum (FCS), MTT (3-[[…]]-2,5-diphenyltetrazolium bromide), DMSO, antibiotic/antimycotic and Supplementary Materials were purchased from Thermo Fisher Scientific, Inc, (Waltham, MA, USA).
(§2) Cells were harvested at 80% confluence by treating the medium-free monolayer with trypsin-EDTA. Cell counts were performed with a hemocytometer, and cell viability was determined with trypan blue. The cell suspension was adjusted to a final concentration of […] in DMEM (Dulbecco’s modified Eagle medium) with 10% FCS. Cells were dispensed to tissue culture grade 96-well plates, with each microwell receiving 100 µL, i.e., 7000 cells per microwell. The plate was incubated at 37 °C for 12 h in 5% CO2 incubator. Stock solutions (10 mM) of the test compounds and positive control were prepared in DMSO. Test concentrations were prepared by diluting the stocks with the growth media. Test compound solutions were diluted from 100 µL to a final well volume of 200 µL. MTT reagent was prepared in phosphate-buffered saline (PBS) in a concentration of 5 mg/mL. After 48 h, 25 µL of MTT reagent was added to each microwell, followed by incubation for 5 h. MTT is reduced by metabolically active cells to insoluble purple formazan crystals by mitochondrial enzymes. The reduction of MTT is primarily due to glycolytic activity within the cell, and is dependent upon the presence of NADH and NADPH. The entire contents of each microwell were carefully pipetted out without disturbing the cells on the well floor. In order to solubilize the formazan crystals, 100 µL of DMSO was dispensed to each well. The absorbance was measured with the help of a Bio Rad PR 4100 microplate reader at a wavelength of 570 nm. Serial dilutions of cisplatin were used as a positive control, while the negative controls contained only the reagent, but not any drug. Percentage viability was calculated and dose–response curves were plotted using the percentage viability against the drug/test compound concentration (µM). Results represent mean ±SD of six readings: three determinations of two independent experiments.
(§3) These four compounds were subsequently tested for their cytotoxic effect on different cell lines. Cell viability assays on cancer cell lines HeLa and HepG2 and non-cancerous Vero cell line were performed using the lead compounds (Z21, Z88, F34, AF3) with doses ranging from 50 to 400 µM. Cisplatin was used as a positive control at dose levels of 1 µM, 10 µM, and 20 µM. Dose–response curves of all four inhibitors against the three cell lines show the moderate sensitivity of all cell line toward these inhibitors (Figure 6).
For orientation: Formazan colour is commonly taken as a measure of viable cells.

For assay [2], the system named is HepG2 (human epithelial liver cancer) cell line. The experiment in a line: MTT cytotoxicity assay. The assay is classed as cell-based. Conditions: after 48 h of treatment, mean ± S.D.
Description: as §1, §2, §3

Assay [3] deals with Vero (monkey epithelial kidney) cell line. The experiment in a line: MTT cytotoxicity assay. The assay is classed as cell-based. Conditions: after 48 h of treatment, mean ± S.D.
Description: as §1, §2, §3

The subject of assay [4] is BCR-ABL, KIT, LCK, EPHA3, 8, DDR1, 2. Conditions: FDA-approved kinase inhibitor, against tested cell lines, no reference given; cited from earlier work.
For assay [5], the system named is EGFR, VEGFR, RET, Tie-2, FGFR1. To be noted: FDA-approved kinase inhibitor, against tested cell lines, no reference given; cited from earlier work.
The target in another assay is cannabinoid CB1 receptor. More on the design: method as in PMID 17027269. Conditions: cited from earlier work.
For assay [6], the system named is TIE2, PDGFR, RET, KIT, B-RAF. To be noted: FDA-approved kinase inhibitor, against tested cell lines, no reference given; cited from earlier work.
For assay [7], the system named is VEGF, RET, MET, NTRKB, TIE2, AXL. Conditions: FDA-approved kinase inhibitor, against tested cell lines, no reference given; cited from earlier work.
The next assay relates to PDGFR, VEGFR. To be noted: FDA-approved kinase inhibitor, against tested cell lines, no reference given; cited from earlier work.
Assay [8] has as its system BCR-ABL, SRC, KIT, PDGFR, EPH, CSK. Conditions: FDA-approved kinase inhibitor, against tested cell lines, no reference given; cited from earlier work.

Regarding `O=C(CCn1[nH]c(=O)c2ccccc2c1=O)N1CCCC1c1ccc2c(c1)OCCO2` (stereo not shown) [Compound Z88], the IC50 came to 218.7 ± 2.04 µM in [1], 222.1 ± 1.68 µM in assay [2] and 204.8 ± 1.78 µM in assay [3]. As for `Cc1cn(-c2cc(NC(=O)c3ccc(C)c(Nc4nccc(-c5cccnc5)n4)c3)cc(C(F)(F)F)c2)cn1` [nilotinib], the IC50 in assay [4] is […]. For the compound `COc1cc2c(Nc3ccc(Br)cc3F)ncnc2cc1OCC1CCN(C)CC1` [vandetanib], the IC50 in [5] was […]. In the case of `O=C(Nc1ccc(Cl)c(S(=O)(=O)N2CCOCC2)c1)c1cccc2ccccc12` [N-(4-chloro-3-(morpholinosulfonyl)phenyl)-1-naphthamide], the IC50 entry at cannabinoid CB1 receptor is “nanomolar range”.

In the case of `N.N.[Cl][Pt][Cl]` [Cisplatin, cisplatin, reference compound], the IC50 is 6.02 ± 1.59 µM in assay [1], 6.41 ± 1.54 µM in assay [2] and 7.99 ± 2.38 µM in [3]. For `CNC(=O)c1cc(Oc2ccc(NC(=O)Nc3ccc(Cl)c(C(F)(F)F)c3)c(F)c2)ccn1` [regorafenib], the IC50 in assay [6] was […]. Regarding `O=S(=O)(c1cccc(NCc2cccc3ccccc23)c1)N1CCOCC1` [Compound Z21], the results for the IC50 in [1], in assay [2] and in assay [3] were 231 ± 2.35 µM, 246 ± 1.93 µM and 250.2 ± 2.34 µM, respectively.

As for `COc1cc2nccc(Oc3ccc(NC(=O)C4(C(=O)Nc5ccc(F)cc5)CC4)cc3)c2cc1OC` [cabozantinib], in assay [7], the IC50 was below 0.015 µM. Consider `Cc1ccc(Nc2nccc(N(C)c3ccc4c(C)n(C)nc4c3)n2)cc1S(N)(=O)=O` [pazopanib], for which the IC50 in the assay on PDGFR, VEGFR is […]. Regarding `Cc1nc(Nc2ncc(C(=O)Nc3c(C)cccc3Cl)s2)cc(N2CCN(CCO)CC2)n1` [dasatinib], the IC50 in assay [8] is below 0.01 µM. In the case of `COc1ccc(C(=O)Oc2ccc3c(=O)c(Oc4ccc5ccccc5c4)coc3c2)cc1` [AF3], the IC50 in assay [1] stood at 176 ± 2.12 µM; in assay [2], 188 ± 2.31 µM; in [3], 209 ± 2.43 µM. Consider `Cc1ccc(NC(=O)Cn2cnc3sc(-c4nc(-c5ccccc5)no4)c(C)c3c2=O)cc1Cl` [Compound F34], for which the figures for the IC50 in [1], in assay [2] and in [3] were 145 ± 2.06 µM, 175.5 ± 1.66 µM and 131 ± 2.3 µM, respectively.

As a reminder, the IC50 is the concentration at which inhibition is half-maximal.
